# Source: a melting point compilation (Tetko et al.; mined from patent text by program, amines drawn as free bases though some values may be those of a salt)
row,SMILES,melting point [°C]
1,COc1cc(-c2cn(-c3cccc(OCCn4ccnc4)c3)c3ncnc(N)c23)ccc1OCc1ccccc1,122 to 124
2,CCC(C(O)c1ccc(Cl)cc1)n1ncn(-c2ccc(N3CCN(c4ccccn4)CC3)nc2)c1=O (stereo unspecified),171
3,N#Cc1ccc(-c2ccc(C=Cc3ccccc3)o2)nc1,154 to 155
4,COc1ccc(C(=O)C(CC(=O)O)c2ccccc2)cc1 (stereo unspecified),157 to 159
5,O=C(O)CCn1c(=S)sc2ccccc21,164 to 165
6,O=C1CCc2c1ccc1c2CCc2ccccc2-1,127 to 128
7,Nc1cc2c(cc1[N+](=O)[O-])OCC2,152
8,O=C(N[C@@H](Cc1c[nH]cn1)C(=O)OCc1ccsc1)C(Cc1cccc2ccccc12)Cc1cccc2ccccc12,200 to 203
9,O=C(O)CCc1ccc(-c2nc3c(=O)n(CC4CCCCC4)c(=O)n(CC4CCCCC4)c3[nH]2)cc1,> 300
10,Nc1cc(-n2cc(C(=O)O)c(=O)c3cc([N+](=O)[O-])c(F)c(F)c32)c(F)cc1F,142 to 143
11,O=C(NCC12CC3CC(CC(C3)C1)C2)c1cc(CCCNCCCO)cnc1Cl,105 to 107
12,CC(C)NC(=S)n1ccc2cc(Cl)ccc21,135
13,CC(C)OC(=O)C1CCCn2c(C(=O)c3ccc(F)cc3)ccc21 (stereo unspecified),92
14,COc1ccc(-c2ccc(C(=O)Nc3cccc(CC(=O)O)c3)o2)cc1,179 to 180
15,O=C(Oc1ccccc1)N1Cc2ccccc2C(c2ccccc2)c2ccccc21 (stereo unspecified),155 to 165
16,Cc1oc2c(Br)cc(C(CCOS(C)(=O)=O)CCOS(C)(=O)=O)cc2c1C,154 to 156
17,Cc1[nH]c2ccc(OCCN3CCCC3c3cccnc3)cc2c1C(=O)OCc1ccccc1 (stereo unspecified),126 to 127
18,CCCC1Oc2cc(OC)c(Cl)c(Cl)c2C1=O (stereo unspecified),90 to 92
19,CC(=O)NC1=C(C#N)C(c2cccc([N+](=O)[O-])c2)c2ccc3ccccc3c2O1 (stereo unspecified),234 to 236
20,CCn1ncc2c3onc(-c4cccc(O)c4)c3cnc21,187 to 188
21,COc1ccc(-c2nnc(N)nc2-c2ccc(OC)cc2)cc1,179 to 181
22,O=C1OC(CCc2ccccc2)(c2ccccc2)CC(O)=C1Sc1ccccc1 (stereo unspecified),58 to 60
23,CCOC(=O)c1c(-c2ccccc2C)c2cc(Cl)ccc2oc1=O,65 to 66
24,CC1C[C@H]2[C@@H]3CCC4=CC(=O)CC[C@]4(CS)[C@H]3CC[C@]2(C)C1=O (stereo partly specified),130 to 132

row,SMILES,melting point [°C]
1,Cc1cccc2c(=O)n([C@H](C)[C@](O)(Cn3cncn3)c3ccc(F)cc3F)cnc12,141 to 144
2,CCOC(=O)CNC(=O)[C@H](Cc1ccc(O)cc1)NC(=O)[C@H](CO)NC(=O)OCc1ccccc1,166 to 169
3,O=C(Nc1ccc(C(=O)N2Cc3cccn3Cc3ccccc32)cc1)c1cc(Cl)cc(Cl)c1Cl,231 to 234
4,CCC1NCCc2ccc(NC(=N)c3cccs3)cc21 (stereo unspecified),142 to 144
5,CC(C)(C)OC(=O)NCc1cccc(C(=O)O)c1,127 to 128
6,O=[N+]([O-])c1c[nH]nc1-c1ccc(Cl)cc1,172 to 174
7,Cc1cc(Cl)c(-n2nc(C)n(C(F)F)c2=O)cc1OC(C)C(=O)O (stereo unspecified),56 to 60
8,CCCCCCN(C[C@H]1CCC[C@H](CN(CCCCCC)C(=O)Nc2ccc(N(C)C)cc2)C1)C(=O)Nc1ccc(N(C)C)cc1 (relative stereo),121 to 125
9,CCCOc1ccc2oc(-c3ccc4c(c3)C=C(C(=O)Nc3ccc(CN(C)C5CCOCC5)cc3)CCS4(=O)=O)cc2c1,241 to 242
10,COc1ccc2c(c1)CCC(CN1CCC3(CC1)C(=O)NCN3c1ccccc1)C2=O (stereo unspecified),177 to 179
11,OC1(c2ccccn2)CCNCC1,128 to 132
12,CCCCCCCCCCOc1ccc(Cc2cccc(C(=O)O)c2)cc1CCC(=O)O,146 to 148
13,Nc1cc(OCc2ccccc2)ccc1NC(=O)c1ccc(C23CC4CC(CC(C4)C2)C3)c(OCc2ccccc2)c1,178
14,Nc1ccccc1CCCC(C(=O)O)N1C(=O)c2ccccc2C1=O (stereo unspecified),258 to 260
15,CN(C)CCOC(c1ccccc1)c1ccc(C(=O)NCCCCn2cnc3c(N)nc4ccccc4c32)cc1 (stereo unspecified),110 to 114
16,CCCCOCCOc1ccc(-c2ccc3c(c2)C=C(C(=O)Nc2ccc(C(O)c4ccccn4)c(C)c2)CCN3C(=O)C(F)(F)F)cc1 (stereo unspecified),122 to 125
17,C[Si](C)(C)C#Cc1cccc2c1C1(c3ccccc3-c3ccccc31)c1ccccc1-2,205 to 206
18,O=C(NCCO)c1cccc(-c2cccc3cc(Cc4cccc(C(F)(F)F)c4)oc23)c1,140 to 141
19,COc1cc(OC)nc(NC(=O)NS(=O)(=O)c2cscc2C)n1,175 to 178
20,COc1ccc(S(=O)(=O)NC(=O)c2ccc(C(=O)OC(C)C)nc2)cc1,215 to 216
21,O=C(NCc1ccccc1)c1cc(N2CCN(Cc3ccc(F)cc3)C2=O)n[nH]1,262 to 263
22,Cc1cc(-c2cc(C(F)F)n3ncc(C(=O)Nc4nc(C)c(S(=O)(=O)NC(C)(C)CO)s4)c3n2)ccc1C(F)(F)F,271
23,Cc1sc(NC=O)c(C#N)c1Cl,258
24,CCC1(CC)c2ccc(C)cc2C(CC)(CC)N1OC(C)=O,76 to 78

row,SMILES,melting point [°C]
1,COc1ccc(S(=O)(=O)c2c(-c3ccccc3)oc3ccccc23)cc1,146 to 148
2,CCCC(=O)CCCC(=O)CCCSCCCC(C)(C)C(=O)OCC,104 to 105
3,Cc1ncc2cc(-c3c(Cl)cccc3Cl)c(N=CN(C)C)nc2n1,236 to 238
4,CCCCCCOC(=O)CCCC(C)(C)c1cc(O)c(C(C)(C)CCCC(=O)OCCCCCC)cc1O,77 to 78
5,OCCCN1CCN(c2ccccc2OCC(F)(F)F)CC1,94 to 96
6,N#Cc1ccc(C=Cc2ncn(CC(O)(Cn3cncn3)c3ccc(F)cc3F)n2)cc1 (stereo unspecified),189 to 191
7,CCc1cc(Oc2ccc(S(C)(=O)=O)nc2)cc2cc(C3=NCC(CC(N)=O)S3)[nH]c12 (stereo unspecified),190 to 191
8,CC(C)c1n[nH]c2c(NCc3ccccc3)nc(NCCN)nc12,145 to 147
9,CC(=O)COc1cc(C)c(Br)c(C)c1Cc1ccc(C(C)C)cc1,93 to 94
10,N[C@H](C(=O)O)[C@H](S)c1ccccc1,107 to 108
11,CC1(C)C(=O)Oc2ccc3cc(N)c(Cn4cncn4)cc3c21,160 to 163
12,CCOC(=O)c1sc2nc(SCCCN3CCN(c4ccc5ccccc5n4)CC3)[nH]c(=O)c2c1C,200 to 201
13,Cc1nnc(-c2ccccc2F)n2nc(OCc3cn(C)nn3)c(-c3ccsc3)c12,181 to 186
14,COc1cc(C(O)c2cnc(Cl)nc2Cl)cc(OC)c1OC (stereo unspecified),115 to 118
15,CON=Cc1sc(-c2ccc(O)cc2)c(C)c1-c1ccc(O)cc1,219 to 225
16,O=C(CC[N+](=O)[O-])c1ccccc1,59 to 62
17,CNC(=O)Cn1c(-c2cccc(Br)c2)nc2cccnc21,199 to 201
18,O=C(O)c1ccc(OCC(O)c2cc3cc(Cl)ccc3o2)cc1 (stereo unspecified),157 to 159
19,Cc1noc(NS(=O)(=O)c2ccccc2-c2ccc(-c3nccs3)cc2)c1C,87 to 97
20,COC(=O)c1ccc(-c2n[nH]c3c2CCc2nc(C(C)C)c(C(C)C)nc2-3)cc1,204 to 206
21,CCCc1c(C(=O)C2CCCC2)c2ccc(C(N)=O)cc2n1Cc1ccccc1Cl,202
22,COc1ccc(S(=O)(=O)N2Cc3cc(C)ccc3N(C(=O)c3ccccc3-n3cccn3)CC2C(=O)O)cc1 (stereo unspecified),149 to 151
23,O=C(CBr)Nc1ccc(F)cc1C(=O)O,191 to 192
24,Cc1ncc2n1-c1ccc(Cl)cc1N(c1ccccc1)C(=O)C2,276 to 278

row,SMILES,melting point [°C]
1,Cc1c(C(=O)O)ncc2[nH]c3ccc(C4CC=CCC4)cc3c12 (stereo unspecified),284 to 285
2,CCOC(=O)Cn1c(CC)nc2c(O)cccc21,148 to 150
3,CCOc1nn(C(=O)NS(=O)(=O)c2c(C(=O)OC)csc2C)c(=O)n1C,163
4,Clc1nc(SCc2cccc3ccccc23)nc2c1CCN2,107 to 110
5,CC(C)C(=O)C(=Cc1ccccc1)C(=O)Nc1ccccc1,144 to 154
6,CC(=O)c1cc(Cl)sc1S(N)(=O)=O,178 to 179
7,Nc1ccc(-c2coc3cc(O)c(O)cc3c2=O)cc1,305 to 306
8,COc1cccc(CSc2c(O)cc(-c3ccccc3)oc2=O)c1,134 to 136
9,COc1ccc(S(=O)(=O)Cl)c2c3ccccc3n(C=O)c12,201 to 203
10,CC/C(=C(\c1ccc(/C=C/C(=O)O)cc1)c1ccc(OC(=O)COC)cc1)c1ccccc1,190 to 191
11,O=C1C(=CN2CCCC2)c2ccccc2N1c1cccc(Cl)c1,108 to 112
12,CC(C)n1cc(-c2nc(C(N)=O)c(N)nc2-c2ccc(F)cc2)ccc1=O,236
13,COc1c(O)c(C)c(CN2CCOCC2)c(O)c1OC,127 to 130
14,COCCNC(=O)c1cc2cc(OCCNC[C@H](O)COc3ccccc3)ccc2o1,95 to 96
15,Cc1ccc(N)c(C)c1C1OCCO1,100 to 103
16,CCCCc1ccc(N2CCC(CCOc3ccc(C(=O)OCC)cc3)CC2)nn1,91.4
17,O=C(O)CCCOc1cc(Cn2cc(C3c4ccccc4C=Cc4ccccc43)c(=S)[nH]c2=O)cc(OCC(=O)O)c1,104 to 109
18,COc1ccc(/C=C(/C(=O)O)c2cc(OC)c(OC)c(OC)c2)cc1,187 to 189
19,Cc1c(C(=O)Nc2ccc(N3CCC(N4CCOCC4)CC3)cc2C#N)cnn1-c1ccc(Cl)cc1,212 to 213
20,N#CCCC(C#N)(CCC#N)C(N)=O,118 to 120
21,COc1cccc(OCCCNC(=O)OC(C)(C)C)c1-c1cc(Nc2cnc(C#N)cn2)n[nH]1,214 to 216
22,CCCCCCCCCCCCOc1cccc(C2=C(O)C(O)(Cc3ccccc3)N(C)C2=O)c1 (stereo unspecified),110 to 111
23,CCCCCCC=CCC1CC(=O)N(c2cc(Cc3n[nH]c(=O)c4ccccc34)ccc2F)C1=O (stereo unspecified),146 to 149
24,CN(C)C=CC=C(C#N)c1cccnc1,117 to 120
